According to publication PMC8213057, “Targeting ALK2: An Open Science Approach to Developing Therapeutics for the Treatment of Diffuse Intrinsic Pontine Glioma” (Journal of Medicinal Chemistry, 2020):

Tests used:
KDR/VEGFR2 = KDR/VEGFR2 (Homo sapiens, UniProt P35968); conditions: 1 μM; Run 1, Run 2
AURORA B = AURORA B (Homo sapiens, UniProt Q96GD4); conditions: 1 μM; Run 1, Run 2
DYRK1/DYRK1A = DYRK1/DYRK1A (Homo sapiens, UniProt Q13627); conditions: 1 μM; Run 1, Run 2
MRCKa/CDC42BPA = MRCKa/CDC42BPA (Homo sapiens, UniProt Q5VT25); experiment: biochemical; conditions: read-out: % enzyme activity, 1 μM; Run 1, Run 2
CAMK4 = CAMK4 (Homo sapiens, UniProt Q16566); conditions: 1 μM; Run 1, Run 2
ULK1 = biological target: T1, ULK1 (Homo sapiens, UniProt O75385); experiment: biochemical; conditions: read-out: % enzyme activity, 1 μM; Run 1, Run 2
T1 sequence (O75385 1-1050): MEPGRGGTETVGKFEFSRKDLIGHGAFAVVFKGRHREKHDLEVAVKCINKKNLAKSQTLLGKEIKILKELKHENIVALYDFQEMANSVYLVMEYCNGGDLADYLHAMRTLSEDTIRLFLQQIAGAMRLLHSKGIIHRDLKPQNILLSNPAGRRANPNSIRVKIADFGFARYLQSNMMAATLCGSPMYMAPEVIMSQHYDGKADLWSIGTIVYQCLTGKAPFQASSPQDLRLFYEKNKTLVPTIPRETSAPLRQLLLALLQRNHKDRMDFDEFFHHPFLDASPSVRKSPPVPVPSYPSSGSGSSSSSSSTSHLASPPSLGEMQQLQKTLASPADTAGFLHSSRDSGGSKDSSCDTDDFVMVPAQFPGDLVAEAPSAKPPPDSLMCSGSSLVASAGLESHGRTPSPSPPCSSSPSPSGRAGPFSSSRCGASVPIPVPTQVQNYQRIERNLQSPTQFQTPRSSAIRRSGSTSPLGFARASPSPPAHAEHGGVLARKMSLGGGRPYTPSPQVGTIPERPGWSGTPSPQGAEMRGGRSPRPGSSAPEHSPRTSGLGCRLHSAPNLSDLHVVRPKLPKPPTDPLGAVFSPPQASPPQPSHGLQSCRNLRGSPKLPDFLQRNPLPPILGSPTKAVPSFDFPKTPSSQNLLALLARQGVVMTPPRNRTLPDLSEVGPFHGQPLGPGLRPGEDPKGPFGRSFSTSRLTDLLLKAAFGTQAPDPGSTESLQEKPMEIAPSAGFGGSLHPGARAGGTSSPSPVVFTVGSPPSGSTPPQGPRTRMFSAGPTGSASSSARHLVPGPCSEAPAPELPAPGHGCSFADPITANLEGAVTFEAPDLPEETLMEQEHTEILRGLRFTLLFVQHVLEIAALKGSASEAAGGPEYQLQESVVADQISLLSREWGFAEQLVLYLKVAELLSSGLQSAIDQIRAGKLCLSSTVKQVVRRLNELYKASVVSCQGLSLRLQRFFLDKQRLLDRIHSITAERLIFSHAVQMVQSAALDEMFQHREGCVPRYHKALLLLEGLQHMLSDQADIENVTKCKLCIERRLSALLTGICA

YSK4/MAP3K19 = biological target: T2, YSK4/MAP3K19 (Homo sapiens, UniProt Q56UN5); conditions: 1 μM; Run 1, Run 2
T2 sequence (Q56UN5 1-1328): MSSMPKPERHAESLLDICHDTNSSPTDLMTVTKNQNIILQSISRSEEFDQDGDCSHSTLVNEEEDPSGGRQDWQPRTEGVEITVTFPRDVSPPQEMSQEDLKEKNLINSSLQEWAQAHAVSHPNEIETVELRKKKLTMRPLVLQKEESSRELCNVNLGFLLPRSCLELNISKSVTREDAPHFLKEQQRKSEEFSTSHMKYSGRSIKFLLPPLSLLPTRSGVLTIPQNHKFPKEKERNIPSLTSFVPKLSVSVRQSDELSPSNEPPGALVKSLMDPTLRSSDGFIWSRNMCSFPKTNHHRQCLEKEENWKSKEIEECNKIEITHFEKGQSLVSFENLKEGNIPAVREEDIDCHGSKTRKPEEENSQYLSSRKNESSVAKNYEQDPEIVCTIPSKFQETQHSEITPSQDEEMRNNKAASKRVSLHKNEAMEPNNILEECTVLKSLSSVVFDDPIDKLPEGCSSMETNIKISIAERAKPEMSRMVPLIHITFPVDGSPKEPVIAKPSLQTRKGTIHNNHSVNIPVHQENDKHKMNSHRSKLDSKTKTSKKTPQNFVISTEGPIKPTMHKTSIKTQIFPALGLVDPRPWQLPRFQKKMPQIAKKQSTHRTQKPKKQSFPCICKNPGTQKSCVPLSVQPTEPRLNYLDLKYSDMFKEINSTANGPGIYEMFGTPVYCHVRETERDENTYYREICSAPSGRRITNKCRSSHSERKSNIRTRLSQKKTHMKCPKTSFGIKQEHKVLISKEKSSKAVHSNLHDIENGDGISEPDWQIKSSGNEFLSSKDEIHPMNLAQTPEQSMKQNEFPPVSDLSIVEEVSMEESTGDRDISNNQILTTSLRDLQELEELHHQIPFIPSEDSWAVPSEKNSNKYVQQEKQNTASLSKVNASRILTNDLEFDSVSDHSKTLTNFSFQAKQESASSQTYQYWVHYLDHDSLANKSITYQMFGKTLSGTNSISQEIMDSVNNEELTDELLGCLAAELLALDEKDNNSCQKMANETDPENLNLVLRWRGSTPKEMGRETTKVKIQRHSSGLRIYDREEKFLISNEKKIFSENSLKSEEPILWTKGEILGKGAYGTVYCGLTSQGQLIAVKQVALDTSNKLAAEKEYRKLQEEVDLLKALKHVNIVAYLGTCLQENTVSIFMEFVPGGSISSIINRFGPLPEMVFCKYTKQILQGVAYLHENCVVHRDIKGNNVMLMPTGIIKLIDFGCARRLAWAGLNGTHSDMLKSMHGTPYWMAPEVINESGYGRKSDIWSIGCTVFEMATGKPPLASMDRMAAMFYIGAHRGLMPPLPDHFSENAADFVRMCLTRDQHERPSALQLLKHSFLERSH

MARK3 = MARK3 (Homo sapiens, UniProt P27448); conditions: 1 μM; Run 1, Run 2
Sequence of MARK3 (P27448 whole entry): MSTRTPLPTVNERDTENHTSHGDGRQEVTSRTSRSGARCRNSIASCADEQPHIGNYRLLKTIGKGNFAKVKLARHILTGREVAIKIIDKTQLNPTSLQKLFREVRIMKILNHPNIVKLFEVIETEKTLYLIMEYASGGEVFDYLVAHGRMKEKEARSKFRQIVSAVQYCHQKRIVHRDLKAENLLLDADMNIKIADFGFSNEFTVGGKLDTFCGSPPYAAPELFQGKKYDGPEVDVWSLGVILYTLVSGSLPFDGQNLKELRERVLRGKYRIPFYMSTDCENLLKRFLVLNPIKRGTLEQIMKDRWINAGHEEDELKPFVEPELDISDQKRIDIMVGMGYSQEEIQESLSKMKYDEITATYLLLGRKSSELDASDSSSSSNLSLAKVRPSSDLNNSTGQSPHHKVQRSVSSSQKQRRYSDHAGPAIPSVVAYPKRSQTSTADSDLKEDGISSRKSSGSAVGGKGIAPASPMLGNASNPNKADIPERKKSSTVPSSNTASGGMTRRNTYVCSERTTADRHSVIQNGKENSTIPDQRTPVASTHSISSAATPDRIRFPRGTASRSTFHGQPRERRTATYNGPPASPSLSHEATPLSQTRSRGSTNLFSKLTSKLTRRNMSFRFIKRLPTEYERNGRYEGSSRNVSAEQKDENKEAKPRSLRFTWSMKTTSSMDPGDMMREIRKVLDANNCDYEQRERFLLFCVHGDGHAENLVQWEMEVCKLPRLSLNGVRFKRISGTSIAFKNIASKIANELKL

Sequence of MRCKa/CDC42BPA (Q5VT25 whole entry): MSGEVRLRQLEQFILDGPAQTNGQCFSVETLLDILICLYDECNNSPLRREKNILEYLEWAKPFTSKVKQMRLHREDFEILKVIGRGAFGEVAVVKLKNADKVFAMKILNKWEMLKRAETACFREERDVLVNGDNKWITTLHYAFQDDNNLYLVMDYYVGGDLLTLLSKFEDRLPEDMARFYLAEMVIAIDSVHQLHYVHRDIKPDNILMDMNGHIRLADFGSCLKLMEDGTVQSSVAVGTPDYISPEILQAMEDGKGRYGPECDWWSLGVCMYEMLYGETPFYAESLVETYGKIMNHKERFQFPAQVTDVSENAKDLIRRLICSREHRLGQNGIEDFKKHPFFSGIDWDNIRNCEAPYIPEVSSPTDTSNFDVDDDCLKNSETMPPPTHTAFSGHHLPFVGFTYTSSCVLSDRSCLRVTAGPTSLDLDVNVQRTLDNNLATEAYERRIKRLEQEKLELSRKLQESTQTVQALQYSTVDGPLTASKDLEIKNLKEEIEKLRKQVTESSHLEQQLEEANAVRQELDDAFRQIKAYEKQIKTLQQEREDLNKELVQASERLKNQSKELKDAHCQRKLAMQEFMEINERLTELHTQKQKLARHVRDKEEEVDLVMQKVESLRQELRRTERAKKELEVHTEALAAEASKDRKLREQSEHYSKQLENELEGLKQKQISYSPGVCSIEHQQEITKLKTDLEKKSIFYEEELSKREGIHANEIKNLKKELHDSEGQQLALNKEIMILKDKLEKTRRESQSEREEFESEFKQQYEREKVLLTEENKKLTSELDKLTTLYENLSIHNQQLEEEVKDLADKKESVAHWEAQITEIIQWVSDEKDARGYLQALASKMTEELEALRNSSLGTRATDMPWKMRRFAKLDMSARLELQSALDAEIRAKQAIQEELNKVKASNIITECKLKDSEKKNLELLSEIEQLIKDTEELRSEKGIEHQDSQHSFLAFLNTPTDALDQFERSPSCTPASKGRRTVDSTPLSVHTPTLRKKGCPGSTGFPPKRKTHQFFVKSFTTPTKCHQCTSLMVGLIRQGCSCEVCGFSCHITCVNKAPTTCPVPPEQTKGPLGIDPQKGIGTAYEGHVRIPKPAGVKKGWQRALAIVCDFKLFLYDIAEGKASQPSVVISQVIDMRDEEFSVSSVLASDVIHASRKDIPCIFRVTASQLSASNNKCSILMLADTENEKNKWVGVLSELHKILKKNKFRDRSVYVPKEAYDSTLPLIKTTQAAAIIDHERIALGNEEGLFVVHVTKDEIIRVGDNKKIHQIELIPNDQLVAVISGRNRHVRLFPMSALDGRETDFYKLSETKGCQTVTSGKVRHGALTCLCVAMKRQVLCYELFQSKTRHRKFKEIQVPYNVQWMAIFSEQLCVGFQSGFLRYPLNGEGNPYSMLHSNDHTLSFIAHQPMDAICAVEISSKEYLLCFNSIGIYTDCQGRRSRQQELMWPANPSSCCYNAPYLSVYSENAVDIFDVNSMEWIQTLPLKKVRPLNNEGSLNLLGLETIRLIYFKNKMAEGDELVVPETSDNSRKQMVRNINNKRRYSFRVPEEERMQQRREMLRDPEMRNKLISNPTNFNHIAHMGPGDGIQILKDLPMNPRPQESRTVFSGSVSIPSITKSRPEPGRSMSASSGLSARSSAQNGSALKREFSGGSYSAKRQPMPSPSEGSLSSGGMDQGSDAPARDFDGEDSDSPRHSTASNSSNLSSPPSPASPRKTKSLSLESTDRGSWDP
Sequence of AURORA B (Q96GD4 whole entry): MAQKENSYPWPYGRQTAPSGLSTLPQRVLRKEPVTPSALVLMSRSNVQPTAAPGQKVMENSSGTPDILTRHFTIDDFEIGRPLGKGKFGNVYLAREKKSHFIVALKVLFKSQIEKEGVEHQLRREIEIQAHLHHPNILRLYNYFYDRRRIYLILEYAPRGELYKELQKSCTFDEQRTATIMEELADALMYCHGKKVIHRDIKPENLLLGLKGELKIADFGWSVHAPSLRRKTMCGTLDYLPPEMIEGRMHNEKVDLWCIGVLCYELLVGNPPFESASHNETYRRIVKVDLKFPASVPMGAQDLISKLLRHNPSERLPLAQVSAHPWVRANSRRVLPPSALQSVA
Sequence of KDR/VEGFR2 (P35968 20-1356): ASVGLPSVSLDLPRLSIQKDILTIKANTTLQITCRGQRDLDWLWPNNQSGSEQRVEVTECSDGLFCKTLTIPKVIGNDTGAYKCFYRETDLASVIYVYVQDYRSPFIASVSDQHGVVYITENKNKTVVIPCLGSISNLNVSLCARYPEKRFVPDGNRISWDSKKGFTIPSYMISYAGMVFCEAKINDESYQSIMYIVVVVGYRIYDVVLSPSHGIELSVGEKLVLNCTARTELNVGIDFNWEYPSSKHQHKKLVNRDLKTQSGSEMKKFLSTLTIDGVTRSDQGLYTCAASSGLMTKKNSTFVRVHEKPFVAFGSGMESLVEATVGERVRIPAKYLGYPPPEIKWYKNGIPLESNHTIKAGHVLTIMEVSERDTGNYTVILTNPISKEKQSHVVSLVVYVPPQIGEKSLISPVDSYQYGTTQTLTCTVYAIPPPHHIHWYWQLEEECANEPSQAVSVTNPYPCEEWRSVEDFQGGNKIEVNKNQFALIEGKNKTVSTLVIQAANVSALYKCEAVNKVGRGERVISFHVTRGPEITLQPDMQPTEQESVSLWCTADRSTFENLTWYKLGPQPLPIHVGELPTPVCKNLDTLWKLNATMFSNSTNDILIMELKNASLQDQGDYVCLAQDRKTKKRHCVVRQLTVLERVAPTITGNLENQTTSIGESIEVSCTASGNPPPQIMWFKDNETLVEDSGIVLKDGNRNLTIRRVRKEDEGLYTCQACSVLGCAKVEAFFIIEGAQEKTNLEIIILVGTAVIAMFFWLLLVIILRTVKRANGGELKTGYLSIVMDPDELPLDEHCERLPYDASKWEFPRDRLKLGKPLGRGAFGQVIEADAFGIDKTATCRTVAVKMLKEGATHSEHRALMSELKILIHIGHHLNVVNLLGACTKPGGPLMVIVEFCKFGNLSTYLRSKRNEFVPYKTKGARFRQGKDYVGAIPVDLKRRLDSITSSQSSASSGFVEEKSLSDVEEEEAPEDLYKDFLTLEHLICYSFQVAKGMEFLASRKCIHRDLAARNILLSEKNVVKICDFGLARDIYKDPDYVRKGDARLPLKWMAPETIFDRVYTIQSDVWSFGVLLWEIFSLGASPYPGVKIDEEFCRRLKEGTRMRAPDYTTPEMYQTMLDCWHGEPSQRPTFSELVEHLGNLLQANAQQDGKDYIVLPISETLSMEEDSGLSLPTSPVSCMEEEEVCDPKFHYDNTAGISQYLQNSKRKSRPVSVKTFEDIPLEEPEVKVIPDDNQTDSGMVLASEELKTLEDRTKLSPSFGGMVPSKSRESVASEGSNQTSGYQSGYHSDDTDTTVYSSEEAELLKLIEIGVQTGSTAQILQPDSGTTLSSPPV
Sequence of CAMK4 (Q16566 whole entry): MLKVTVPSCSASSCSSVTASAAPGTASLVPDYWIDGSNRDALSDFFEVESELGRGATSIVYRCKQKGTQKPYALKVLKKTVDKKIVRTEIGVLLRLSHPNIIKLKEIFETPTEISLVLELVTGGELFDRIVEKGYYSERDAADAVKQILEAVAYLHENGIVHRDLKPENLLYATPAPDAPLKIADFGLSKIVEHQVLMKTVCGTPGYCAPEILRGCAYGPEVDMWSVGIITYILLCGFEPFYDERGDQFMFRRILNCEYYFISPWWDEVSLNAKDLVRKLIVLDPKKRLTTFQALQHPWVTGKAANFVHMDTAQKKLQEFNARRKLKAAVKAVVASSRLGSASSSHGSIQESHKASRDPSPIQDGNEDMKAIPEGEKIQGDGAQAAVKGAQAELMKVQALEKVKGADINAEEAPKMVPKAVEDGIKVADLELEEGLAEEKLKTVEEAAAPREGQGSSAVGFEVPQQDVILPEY

SMILES | % enzyme activity (KDR/VEGFR2) | % enzyme activity (AURORA B) | % enzyme activity (DYRK1/DYRK1A) | remaining activity at 1 µM (MRCKa/CDC42BPA) | % enzyme activity (CAMK4) | remaining activity at 1 µM (ULK1) | % enzyme activity (YSK4/MAP3K19) | % enzyme activity (MARK3)
COc1cc(-c2cncc(-c3ccc(N4CCN(C)CC4)cc3)c2C)cc(F)c1C(N)=O [Compound 26a, 2-Fluoro-6-methoxy-4-(4-methyl-5-(4-(4-methylpiperazin-1-yl)phenyl)pyridin-3-yl)benzamide] | 92.99% | 100.58% | 43.07% | 103% | 98.68% | 84.7% | 97.39% | 82.91%
COc1cc(-c2cncc(-c3ccc(N4C[C@@H](C)N(C)[C@@H](C)C4)cc3)c2C)cc(F)c1C(N)=O [Compound 26c, 2-Fluoro-6-methoxy-4-(4-methyl-5-(4-((3R,5S)-3,4,5-trimethylpiperazin-1-yl)phenyl)pyridin-3-yl)benzamide] | 85.59% | 104.62% | 60.05% | 105% | 100.90% | 89.8% | 96.61% | 93.66%
